Earlier results on 1 compound are cited in patent US20250221938A1, “PHARMACEUTICAL COMPOSITION, METHODS FOR TREATING AND USES THEREOF” (Boehringer Ingelheim International GmbH, priority 2015, published 2025).

Structures can show the parent of a compound that is named as a salt.

The conditions of this data set: metformin on its own, in the diabetic.

For `CN(C)C(=N)N=C(N)N` [metformin, metformin hydrochloride], the “average improvement in the HbA1c value” is 1.0-1.5%.
